{"source": "paper PMC6348443", "about": "(Journal of Medicinal Chemistry, 2018)", "key": {"DOR [1]": {"biological_target": "T1, DOR (Rattus norvegicus, UniProt P33533)", "T1 construct": "Membranes were prepared from Sprague-Dawley rat brains or guinea-pig brains according to the described procedures; tissue Labortierkunde und Laborgenetik, Medizinische Universität Wien; host or cells: Sprague-Dawley rat brain without cerebella", "T1 sequence (P33533 whole entry)": "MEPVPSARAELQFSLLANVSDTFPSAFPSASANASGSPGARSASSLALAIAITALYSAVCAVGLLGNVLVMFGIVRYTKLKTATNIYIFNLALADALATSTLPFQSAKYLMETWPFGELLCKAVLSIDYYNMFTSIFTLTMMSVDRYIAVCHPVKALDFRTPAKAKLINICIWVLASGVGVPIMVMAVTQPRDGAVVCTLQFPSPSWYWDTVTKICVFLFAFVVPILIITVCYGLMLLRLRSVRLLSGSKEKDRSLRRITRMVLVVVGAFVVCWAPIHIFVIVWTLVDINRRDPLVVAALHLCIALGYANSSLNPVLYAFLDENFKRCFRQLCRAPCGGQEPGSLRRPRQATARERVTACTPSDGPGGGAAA", "test": "competition radioligand binding, rat brain membranes, [3H][Ile5,6]deltorphin II", "conditions": "for Ki: rat brain membranes, read-out: opioid receptor binding Ki DOR"}, "MOR": {"biological_target": "T2, MOR (Homo sapiens, UniProt P35372)", "T2 construct": "host or cells: CHO (CHO-hMOR)", "T2 sequence (P35372 whole entry)": "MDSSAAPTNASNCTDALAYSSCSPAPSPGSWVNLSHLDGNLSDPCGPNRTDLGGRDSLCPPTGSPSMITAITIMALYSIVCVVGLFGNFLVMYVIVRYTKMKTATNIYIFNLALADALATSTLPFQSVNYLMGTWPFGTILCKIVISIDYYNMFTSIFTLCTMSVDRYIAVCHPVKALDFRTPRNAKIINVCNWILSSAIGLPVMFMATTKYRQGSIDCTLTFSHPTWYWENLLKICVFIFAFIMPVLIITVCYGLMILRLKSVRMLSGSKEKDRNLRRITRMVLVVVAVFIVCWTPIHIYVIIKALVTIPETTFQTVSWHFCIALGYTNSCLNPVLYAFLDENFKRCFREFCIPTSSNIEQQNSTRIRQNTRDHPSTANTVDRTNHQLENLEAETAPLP", "test": "[35S]GTPγS binding assay, CHO-hMOR membranes", "assay_type": "biochemical", "conditions": "for EC50: [35S]GTPγS, CHO human MOR membranes, read-out: MOR EC50; for Emax: relative to reference full agonist DAMGO, read-out: MOR % stim."}, "DOR [2]": {"biological_target": "T3, DOR (Homo sapiens, UniProt P41143)", "T3 construct": "host or cells: CHO (CHO-hDOR)", "T3 sequence (P41143 whole entry)": "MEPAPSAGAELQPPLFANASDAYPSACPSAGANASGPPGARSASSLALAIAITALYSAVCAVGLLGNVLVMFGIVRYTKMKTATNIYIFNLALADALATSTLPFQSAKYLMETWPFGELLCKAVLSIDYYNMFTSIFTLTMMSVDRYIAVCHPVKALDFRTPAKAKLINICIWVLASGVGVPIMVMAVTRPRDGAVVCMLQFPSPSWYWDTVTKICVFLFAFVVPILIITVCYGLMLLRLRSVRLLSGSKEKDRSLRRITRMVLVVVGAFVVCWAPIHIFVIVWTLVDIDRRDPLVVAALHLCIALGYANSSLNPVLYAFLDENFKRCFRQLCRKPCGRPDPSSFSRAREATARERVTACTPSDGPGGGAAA", "test": "[35S]GTPγS binding assay, CHO-hDOR membranes", "assay_type": "biochemical", "conditions": "for EC50: [35S]GTPγS, CHO human DOR membranes; for Emax: relative to reference full agonist DPDPE, read-out: DOR % stim."}, "KOR": {"biological_target": "T4, KOR (Homo sapiens, UniProt P41145)", "T4 construct": "host or cells: CHO (CHO-hKOR)", "T4 sequence (P41145 whole entry)": "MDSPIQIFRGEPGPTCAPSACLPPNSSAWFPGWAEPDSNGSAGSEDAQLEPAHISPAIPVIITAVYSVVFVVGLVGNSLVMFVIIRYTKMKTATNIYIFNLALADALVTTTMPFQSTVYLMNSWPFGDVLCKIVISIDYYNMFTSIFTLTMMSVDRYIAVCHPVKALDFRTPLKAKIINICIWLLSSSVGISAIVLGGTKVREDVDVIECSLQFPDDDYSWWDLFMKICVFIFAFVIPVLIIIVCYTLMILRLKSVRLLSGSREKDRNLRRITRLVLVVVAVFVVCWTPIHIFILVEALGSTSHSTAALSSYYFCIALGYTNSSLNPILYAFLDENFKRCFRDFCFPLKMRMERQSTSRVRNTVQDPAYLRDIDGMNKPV", "test": "[35S]GTPγS binding assay, CHO-hKOR membranes", "assay_type": "biochemical", "conditions": "for EC50: [35S]GTPγS, CHO human KOR membranes, read-out: KOR EC50; for Emax: relative to reference full agonist U69,593, read-out: KOR % stim."}, "[3]": {"tested_on": "peripheral opioid receptors", "test": "antagonism by naloxone methiodide in the acetic acid-induced writhing assay", "assay_type": "in vivo, mouse", "conditions": "sc co-administration with naloxone methiodide 1 mg/kg; agonist 50 or 200 μg/kg sc; 30 min", "from_the_text": "To determine whether targeted 6-amino acid and 6-dipeptide analogues inhibit writhing behavior in mice through peripheral opioid receptors activation, we used naloxone methiodide.[27]\nValues are shown as mean of writhes ± SEM (n = 6–7 mice per group). ***P < 0.001 vs control group; ^#P < 0.05, ^##P < 0.01 and ^###P < 0.001 vs agonist treated group, ANOVA with Tukey’s post hoc test.\nWrithing was induced in male CD1 mice by ip injection of a 0.6% acetic acid aqueous solution as described previously.[48],[62] Groups of mice were administered sc different doses of test compound or saline (control), and 5 min prior to testing (25 min after drug or saline), each animal received an ip injection of acetic acid solution. Each mouse was placed in individual transparent Plexiglas chambers, and the number of writhes was counted during a 10 min observation period. […] For the antagonism study, naloxone methiodide was sc co-administered with the respective opioid agonist, and writhing was assessed as described above."}}, "note": "Where a name gives a salt, the structure may show the parent alone.", "data": [{"compound": "CC[C@H](N[C@H]1CC[C@@]2(OC)[C@H]3Cc4ccc(O)c5c4[C@@]2(CCN3C)[C@H]1O5)C(=O)O", "note": "[Compound 19a, (2S)-2-[(4,5α-Epoxy-3-hydroxy-14β-methoxy-17-methylmorphinan-6α-yl)amino]-2-ethylacetic Acid Dihydrochloride]", "values": [{"measurement": "Ki", "setting": "DOR [1]", "result": "37.5 ± 3.4", "unit": "nM"}, {"measurement": "decreased DOR affinity vs 6β analogue", "setting": "DOR [1]; rat brain, 18a vs 18b, 19a vs 19b", "result": 29, "unit": "times"}, {"measurement": "EC50", "setting": "MOR", "result": "5.12 ± 0.09", "unit": "nM"}, {"measurement": "Emax", "setting": "MOR", "result": "88 ± 2", "unit": "%"}, {"measurement": "EC50", "setting": "DOR [2]", "result": "98.2 ± 5.1", "unit": "nM"}, {"measurement": "Emax", "setting": "DOR [2]", "result": "104 ± 9", "unit": "%"}, {"measurement": "EC50", "setting": "KOR", "result": "942 ± 235", "unit": "nM"}, {"measurement": "Emax", "setting": "KOR", "result": "61 ± 2", "unit": "%"}, {"measurement": "effect of naloxone methiodide on antinociceptive effect", "setting": "[3]", "result": "reversed"}]}, {"compound": "CO[C@@]12CC[C@H](N[C@H](C(=O)N[C@@H](Cc3ccc(O)cc3)C(=O)O)C(C)C)[C@@H]3Oc4c(O)ccc5c4[C@@]31CCN(C)[C@@H]2C5", "note": "[Compound 22a, (2S)-2-[[(4,5α-Epoxy-3-hydroxy-14β-methoxy-17-methylmorphinan-6α-yl)amino]-(2S)-3-methylbutyrylamino]-3-(4-hydroxyphenyl)propionic Acid]", "values": [{"measurement": "Ki", "setting": "DOR [1]", "result": "1.19 ± 0.42", "unit": "nM"}, {"measurement": "EC50", "setting": "MOR", "result": "0.89 ± 0.04", "unit": "nM"}, {"measurement": "functional profile at MOR (full/partial agonist)", "setting": "MOR; full agonist ≥85% of the response to DAMGO", "result": "partial agonists"}, {"measurement": "Emax", "setting": "MOR", "result": "~80", "unit": "%"}, {"measurement": "EC50", "setting": "DOR [2]", "result": "1.16 ± 0.6", "unit": "nM"}, {"measurement": "functional profile at DOR (full/partial agonist)", "setting": "DOR [2]; full agonist ≥85% of the response to DPDPE", "result": "full agonists"}, {"measurement": "Emax", "setting": "DOR [2]", "result": "88 ± 5", "unit": "%"}, {"measurement": "EC50", "setting": "KOR", "result": "330 ± 179", "unit": "nM"}, {"measurement": "Emax", "setting": "KOR", "result": "50 ± 2", "unit": "%"}, {"measurement": "effect of naloxone methiodide on antinociceptive effect", "setting": "[3]", "result": "reversed"}]}]}
